Measurements taken from patent US8808743B2, “Benzonatate compositions and methods of use” (priority 2010, dated 2014).

Assay: Simulated gastrointestinal dissolution testing (FloVitro apparatus, USP simulated gastric and intestinal fluids)
Format: physicochemical
Settings: 100 mg dose
Description: The dissolution test used procedures devised by DOW Chemical using their proprietary FloVitro™ dissolution apparatus described in U.S. Pat. No. 6,799,123B2 and in the publication titled “FloVitro™ Technology” published online at:
The system used two different media that were combined during the process. The fluid flow rates were:
Simulated gastric fluid=7.7 ml/min
Simulated intestinal fluid=13.1 ml/mi
Total flow through analyzer=20.8 ml/min
To Cell 1: USP simulated gastric fluid (no pepsin)
To Cell 2: USP simulated intestinal fluid (pH 6.8) (SIF)
The samples tested were: • a) 100 mg dose neat benzonatate • b) 220.48 mg of IRP69H resinate: 87.97 mg benzonatate dose • c) 225.15 mg of IRP64H resinate: 102.21 mg benzonatate dose a) 100 mg Neat Benzonatate

CCCCNc1ccc(C(=O)OCCOCCOCCOCCOCCOCCOCCOCCOCCOC)cc1 [BENZ, benzonatate]
Concentration of Homolog in Effluent Total (0 min): 0.00 mg/L | Concentration of Homolog in Effluent n = 3 (0 min): 0.00 mg/L | Concentration of Homolog in Effluent n = 4 (0 min): 0.00 mg/L | Concentration of Homolog in Effluent n = 5 (0 min): 0.00 mg/L | Concentration of Homolog in Effluent n = 6 (0 min): 0.00 mg/L | Concentration of Homolog in Effluent n = 7 (0 min): 0.00 mg/L | Concentration of Homolog in Effluent n = 8 (0 min): 0.00 mg/L | Concentration of Homolog in Effluent n = 9 (0 min): 0.00 mg/L | Concentration of Homolog in Effluent n = 10 (0 min): 0.00 mg/L | Concentration of Homolog in Effluent n = 11 (0 min): 0.00 mg/L | Concentration of Homolog in Effluent n = 12 (0 min): 0.00 mg/L | Concentration of Homolog in Effluent n = 13 (0 min): 0.00 mg/L | Concentration of Homolog in Effluent n = 14 (0 min): 0.00 mg/L | Concentration of Homolog in Effluent n = 15 (0 min): 0.00 mg/L | Concentration of Homolog in Effluent n = 16 (0 min): 0.00 mg/L | Concentration of Homolog in Effluent n = 17 (0 min): 0.00 mg/L | Concentration of Homolog in Effluent Total (10 min): 13.84 mg/L | Concentration of Homolog in Effluent n = 3 (10 min): 0.04 mg/L | Concentration of Homolog in Effluent n = 4 (10 min): 0.14 mg/L | Concentration of Homolog in Effluent n = 5 (10 min): 0.41 mg/L | Concentration of Homolog in Effluent n = 6 (10 min): 0.85 mg/L | Concentration of Homolog in Effluent n = 7 (10 min): 1.42 mg/L | Concentration of Homolog in Effluent n = 8 (10 min): 1.92 mg/L | Concentration of Homolog in Effluent n = 9 (10 min): 2.14 mg/L | Concentration of Homolog in Effluent n = 10 (10 min): 2.06 mg/L | Concentration of Homolog in Effluent n = 11 (10 min): 1.80 mg/L | Concentration of Homolog in Effluent n = 12 (10 min): 1.26 mg/L | Concentration of Homolog in Effluent n = 13 (10 min): 0.84 mg/L | Concentration of Homolog in Effluent n = 14 (10 min): 0.49 mg/L | Concentration of Homolog in Effluent n = 15 (10 min): 0.27 mg/L | Concentration of Homolog in Effluent n = 16 (10 min): 0.12 mg/L | Concentration of Homolog in Effluent n = 17 (10 min): 0.08 mg/L | Cumul. (cumulative release in effluent) (10 min): 1.44 mg | Concentration of Homolog in Effluent Total (20 min): 28.13 mg/L | Concentration of Homolog in Effluent n = 3 (20 min): 0.07 mg/L | Concentration of Homolog in Effluent n = 4 (20 min): 0.28 mg/L | Concentration of Homolog in Effluent n = 5 (20 min): 0.78 mg/L | Concentration of Homolog in Effluent n = 6 (20 min): 1.73 mg/L | Concentration of Homolog in Effluent n = 7 (20 min): 2.91 mg/L | Concentration of Homolog in Effluent n = 8 (20 min): 3.90 mg/L | Concentration of Homolog in Effluent n = 9 (20 min): 4.38 mg/L | Concentration of Homolog in Effluent n = 10 (20 min): 4.18 mg/L | Concentration of Homolog in Effluent n = 11 (20 min): 3.58 mg/L | Concentration of Homolog in Effluent n = 12 (20 min): 2.65 mg/L | Concentration of Homolog in Effluent n = 13 (20 min): 1.73 mg/L | Concentration of Homolog in Effluent n = 14 (20 min): 1.03 mg/L | Concentration of Homolog in Effluent n = 15 (20 min): 0.55 mg/L | Concentration of Homolog in Effluent n = 16 (20 min): 0.25 mg/L | Concentration of Homolog in Effluent n = 17 (20 min): 0.08 mg/L | Cumul. (cumulative release in effluent) (20 min): 8.00 mg | Concentration of Homolog in Effluent Total (30 min): 34.97 mg/L | Concentration of Homolog in Effluent n = 3 (30 min): 0.08 mg/L | Concentration of Homolog in Effluent n = 4 (30 min): 0.35 mg/L | Concentration of Homolog in Effluent n = 5 (30 min): 0.98 mg/L | Concentration of Homolog in Effluent n = 6 (30 min): 2.10 mg/L | Concentration of Homolog in Effluent n = 7 (30 min): 3.61 mg/L | Concentration of Homolog in Effluent n = 8 (30 min): 4.89 mg/L | Concentration of Homolog in Effluent n = 9 (30 min): 5.47 mg/L | Concentration of Homolog in Effluent n = 10 (30 min): 5.28 mg/L | Concentration of Homolog in Effluent n = 11 (30 min): 4.52 mg/L | Concentration of Homolog in Effluent n = 12 (30 min): 3.29 mg/L | Concentration of Homolog in Effluent n = 13 (30 min): 2.13 mg/L | Concentration of Homolog in Effluent n = 14 (30 min): 1.27 mg/L | Concentration of Homolog in Effluent n = 15 (30 min): 0.63 mg/L | Concentration of Homolog in Effluent n = 16 (30 min): 0.28 mg/L | Concentration of Homolog in Effluent n = 17 (30 min): 0.09 mg/L | Cumul. (cumulative release in effluent) (30 min): 15.52 mg | Concentration of Homolog in Effluent Total (40 min): 37.37 mg/L | Concentration of Homolog in Effluent n = 3 (40 min): 0.09 mg/L | Concentration of Homolog in Effluent n = 4 (40 min): 0.40 mg/L | Concentration of Homolog in Effluent n = 5 (40 min): 1.10 mg/L | Concentration of Homolog in Effluent n = 6 (40 min): 2.27 mg/L | Concentration of Homolog in Effluent n = 7 (40 min): 3.86 mg/L | Concentration of Homolog in Effluent n = 8 (40 min): 5.23 mg/L | Concentration of Homolog in Effluent n = 9 (40 min): 5.81 mg/L | Concentration of Homolog in Effluent n = 10 (40 min): 5.66 mg/L | Concentration of Homolog in Effluent n = 11 (40 min): 4.80 mg/L | Concentration of Homolog in Effluent n = 12 (40 min): 3.47 mg/L | Concentration of Homolog in Effluent n = 13 (40 min): 2.31 mg/L | Concentration of Homolog in Effluent n = 14 (40 min): 1.35 mg/L | Concentration of Homolog in Effluent n = 15 (40 min): 0.67 mg/L | Concentration of Homolog in Effluent n = 16 (40 min): 0.25 mg/L | Concentration of Homolog in Effluent n = 17 (40 min): 0.10 mg/L | Cumul. (cumulative release in effluent) (40 min): 23.20 mg | Concentration of Homolog in Effluent Total (50 min): 36.42 mg/L | Concentration of Homolog in Effluent n = 3 (50 min): 0.11 mg/L | Concentration of Homolog in Effluent n = 4 (50 min): 0.40 mg/L | Concentration of Homolog in Effluent n = 5 (50 min): 1.05 mg/L | Concentration of Homolog in Effluent n = 6 (50 min): 2.18 mg/L | Concentration of Homolog in Effluent n = 7 (50 min): 3.76 mg/L | Concentration of Homolog in Effluent n = 8 (50 min): 5.07 mg/L | Concentration of Homolog in Effluent n = 9 (50 min): 5.67 mg/L | Concentration of Homolog in Effluent n = 10 (50 min): 5.51 mg/L | Concentration of Homolog in Effluent n = 11 (50 min): 4.71 mg/L | Concentration of Homolog in Effluent n = 12 (50 min): 3.42 mg/L | Concentration of Homolog in Effluent n = 13 (50 min): 2.23 mg/L | Concentration of Homolog in Effluent n = 14 (50 min): 1.28 mg/L | Concentration of Homolog in Effluent n = 15 (50 min): 0.67 mg/L | Concentration of Homolog in Effluent n = 16 (50 min): 0.27 mg/L | Concentration of Homolog in Effluent n = 17 (50 min): 0.09 mg/L | Cumul. (cumulative release in effluent) (50 min): 30.53 mg | Concentration of Homolog in Effluent Total (60 min): 34.04 mg/L | Concentration of Homolog in Effluent n = 3 (60 min): 0.07 mg/L | Concentration of Homolog in Effluent n = 4 (60 min): 0.37 mg/L | Concentration of Homolog in Effluent n = 5 (60 min): 0.99 mg/L | Concentration of Homolog in Effluent n = 6 (60 min): 2.07 mg/L | Concentration of Homolog in Effluent n = 7 (60 min): 3.55 mg/L | Concentration of Homolog in Effluent n = 8 (60 min): 4.76 mg/L | Concentration of Homolog in Effluent n = 9 (60 min): 5.36 mg/L | Concentration of Homolog in Effluent n = 10 (60 min): 5.13 mg/L | Concentration of Homolog in Effluent n = 11 (60 min): 4.41 mg/L | Concentration of Homolog in Effluent n = 12 (60 min): 3.17 mg/L | Concentration of Homolog in Effluent n = 13 (60 min): 2.09 mg/L | Concentration of Homolog in Effluent n = 14 (60 min): 1.25 mg/L | Concentration of Homolog in Effluent n = 15 (60 min): 0.56 mg/L | Concentration of Homolog in Effluent n = 16 (60 min): 0.26 mg/L | Concentration of Homolog in Effluent n = 17 (60 min): 0.00 mg/L | Cumul. (cumulative release in effluent) (60 min): 63.41 mg
